Source: US4213994A, “Imidazolyl-(2)-carbinols having hypolipidemic action and process for preparing them” (Hoechst Aktiengesellschaft, priority 1971, dated 1980)
Like-named read-outs stand apart in the source and are kept apart here.

How the values were obtained:
[1] = acute toxicity, LD50 determined on the mouse upon oral administration; settings: in vivo
Source text: While having an extremely low acute toxicity (cf. LD50 -values in Table I), the imidazolyl-(2)-carbinols reduce the lipid level in the serum and reduce artificially produced hyperlipidemia.
The values in brackets of the first column designate the LD50values
(§1) in g/kg, determined on the mouse upon oral administration. The values

[2] = tested on: serum lipid level; assay: Standard test on a male rat with normal serum lipid level (hypolipidemic action, 8 peroral administrations); type: in vivo; settings: for change in vivo at 30 mg/kg / change in vivo at 100 mg/kg / change in vivo at 10 mg/kg: Rattus norvegicus, po, 192 h
Method: 1. Standard test on a male rat with normal serum lipid level
The period of time used for the experiment was 8 days. Administration was effected once daily with the aid of an oesophageal sound with doses of 100, 30 and 10 mg/kg, respectively. In general, blood was withdrawn prior to and after the treatment and the concentration of cholesterin was determined in the serum according to the method described by Lauber and Richterich and that of triglycerides according to the method described by Eggstein and Kreutz.
as §1
before the oblique stroke of the other columns denote the percentual
change of the posterior value (value after the treatment) referred to the
anterior value (starting value before the treatment) of the group of
preparations, the anterior value being 100%; the values behind the obliqu
stroke indicate the percentual change of the posterior value of the group
treated with reference to the posterior value (= 100%) of a placebo group

[3] = tested on: triton-hyperlipidemia; assay: Triton-Hyperlipidemia of the male rat (inhibition of triton-hyperlipidemia); type: in vivo; settings: 4-days pre-treatment; for Inhibition of triton-hyperlipidemia, Serum-cholesterin / Inhibition of triton-hyperlipidemia, Serum-triglyceride: 300 mg/kg Triton WR 1339 i.p., Triton control = 100%
Method: 2. Triton-Hyperlipidemia of the male rat
The influence of a 4-days pre-treatment with the compound of Example 1 on the formation of hyperlipidemia produced by i.p. application of 300 mg/kg of Triton ® WR 1339 was tested in comparison to a control group (=100%) which had only been treated with Triton.

[4] = tested on: dietetic hypercholesterinemia; assay: Dietetic hypercholesterinemia of the male rat (inhibition of dietetic hypercholesterinemia); type: in vivo; settings: 100 mg/kg p.o. once daily
Method: 3. Dietetic hypercholesterinemia of the male rat
Hypercholesterinemia was produced by the addition of 2% of cholesterin and 20% of coconut fat (Palmin) to the normal fodder. The rise of the cholesterin level was determined by comparison with a control group (=100%) which had been given normal fodder only. (Line 1 in Table III). The animals of the preparation group obtained at the same time of the begin of the diet daily once 100 mg/kg p.o. of the compound of Example 1. […]

[5] = solubility in the usual solvents; type: physicochemical
[6] = 10 mg/kg/day p.o., 8 administrations
[7] = 30 mg/kg/day p.o., 8 administrations, value before the oblique stroke (anterior value = 100%), read-out: % change of Serum-Cholesterin, after treatment vs starting value before treatment
[8] = 30 mg/kg/day p.o., 8 administrations, value before the oblique stroke (anterior value = 100%), read-out: % change of Serum-triglycerides, after treatment vs starting value before treatment
[9] = 30 mg/kg/day p.o., 8 administrations, value behind the oblique stroke (placebo posterior value = 100%), read-out: % change of Serum-Cholesterin, treated group vs placebo group
[10] = 30 mg/kg/day p.o., 8 administrations, value behind the oblique stroke (placebo posterior value = 100%), read-out: % change of Serum-triglycerides, treated group vs placebo group
[11] = 100 mg/kg/day p.o., 8 administrations, value before the oblique stroke (anterior value = 100%), read-out: % change of Serum-Cholesterin, after treatment vs starting value before treatment
[12] = 100 mg/kg/day p.o., 8 administrations, value before the oblique stroke (anterior value = 100%), read-out: % change of Serum-triglycerides, after treatment vs starting value before treatment
[13] = 100 mg/kg/day p.o., 8 administrations, value behind the oblique stroke (placebo posterior value = 100%), read-out: % change of Serum-Cholesterin, treated group vs placebo group
[14] = 100 mg/kg/day p.o., 8 administrations, value behind the oblique stroke (placebo posterior value = 100%), read-out: % change of Serum-triglycerides, treated group vs placebo group
[15] = read-out: % change of Serum-Cholesterin, after treatment vs starting value before treatment
[16] = read-out: % change of Serum-triglycerides, after treatment vs starting value before treatment
[17] = read-out: % change of Serum-triglycerides, treated group vs placebo group

Compound | LD50 [1] | change in vivo at 30 mg/kg [2, 7] | change in vivo at 30 mg/kg [2, 8] | change in vivo at 30 mg/kg [2, 10] | change in vivo at 100 mg/kg [2, 11] | change in vivo at 100 mg/kg [2, 12] | change in vivo at 100 mg/kg [2, 13] | change in vivo at 100 mg/kg [2, 14] | further results
CCOC(=O)C(C)(C)Oc1ccc(Cl)cc1 [Clofibrate, 2-(p-chlorophenoxy)-isobutyric acid ethyl ester, reference compound] | 2000 to 2500 mg/kg | -5% | -4% | -7% | -22% | -30% | -13% | -30% | change of Serum-Cholesterin (in words) [2, 6]: ineffective; change of Serum-triglycerides (in words) [2, 6]: ineffective; change in vivo at 30 mg/kg [2, 9]: -8%; Inhibition of triton-hyperlipidemia, Serum-cholesterin (in words) ([3]; 10 mg/kg/day p.o.): ineffective; Inhibition of triton-hyperlipidemia, Serum-triglyceride (in words) ([3]; 10 mg/kg/day p.o.): ineffective; Inhibition of triton-hyperlipidemia, Serum-cholesterin ([3]; 100 mg/kg/day p.o.): -29%; Inhibition of triton-hyperlipidemia, Serum-triglyceride ([3]; 100 mg/kg/day p.o.): -16%
OC(c1ccccc1)(c1nccn1Cc1ccccc1)c1nccn1Cc1ccccc1 [Example 1, Bis-[1-benzylimidazolyl-(2)]-phenyl-carbinole] | > 4000 mg/kg | -33% | -25% | -10% |  |  |  |  | change in vivo at 10 mg/kg ([2]; 10 mg/kg/day p.o., 8 administrations, value before the oblique stroke (anterior value = 100%), read-out: % change of Serum-Cholesterin, after treatment vs starting value before treatment): -10%; change in vivo at 10 mg/kg ([2]; 10 mg/kg/day p.o., 8 administrations, value behind the oblique stroke (placebo posterior value = 100%), read-out: % change of Serum-Cholesterin, treated group vs placebo group): -12%; change in vivo at 10 mg/kg ([2]; 10 mg/kg/day p.o., 8 administrations, value behind the oblique stroke (placebo posterior value = 100%), read-out: % change of Serum-triglycerides, treated group vs placebo group): -13%; change in vivo at 30 mg/kg [2, 9]: -10%; Inhibition of triton-hyperlipidemia, Serum-cholesterin ([3]; 10 mg/kg/day p.o.): -31%; Inhibition of triton-hyperlipidemia, Serum-triglyceride ([3]; 10 mg/kg/day p.o.): -40%; Inhibition of triton-hyperlipidemia, Serum-cholesterin ([3]; 100 mg/kg/day p.o.): -28%; Inhibition of triton-hyperlipidemia, Serum-triglyceride ([3]; 100 mg/kg/day p.o.): -35%; % change of the total cholesterin content in the serum, inhibition due to preparation (diet = 100%) ([4]; after 8 days): -23%; % change of the total cholesterin content in the serum, inhibition due to preparation (diet = 100%) ([4]; after 20 days): -19%; % change of the total cholesterin content in the serum, inhibition due to preparation (diet = 100%) ([4]; after 33 days): -9%
CC(O)c1nccn1Cc1ccccc1 (stereo not drawn) [Example 2, 1-[1-benzylimidazolyl-(2)]-ethanol] | 1120 mg/kg |  |  |  | -24% |  | -3% | -4% | 
CC(C)n1ccnc1C(O)C(Cl)(Cl)Cl (stereo not drawn) [Example 3, 1-[1-Isopropylimidazolyl-(2)]-2,2,2-trichloroethanol] | > 4000 mg/kg |  |  |  |  |  |  |  | change in vivo at 30 mg/kg [2, 15]: -16%; change in vivo at 100 mg/kg [2, 15]: -6%; change in vivo at 100 mg/kg ([2]; read-out: % change of Serum-Cholesterin, treated group vs placebo group): -18%; change in vivo at 30 mg/kg [2, 16]: -21%; change in vivo at 100 mg/kg [2, 16]: -57%; change in vivo at 30 mg/kg [2, 17]: -6%; change in vivo at 100 mg/kg [2, 17]: -30%
OC1(c2nccn2Cc2ccccc2)c2ccccc2-c2ccccc21 [Example 4, 9-[1-Benzylimidazolyl-(2)]-fluorene-9-ol] | > 4000 mg/kg | -11% | -25% |  | -16% | -48% | -21% | -37% | 
Cn1ccnc1C(O)(c1ccccc1)c1ccc(Cl)cc1Cl (stereo not drawn) [Example 5, Phenyl-(2,4-dichlorophenyl)-[1-methylimidazolyl-(2)]-carbinol] | > 4000 mg/kg | -23% | -1% | -17% | -19% | -37% | -32% | -35% | change in vivo at 30 mg/kg [2, 9]: -9%
Cn1c(C(O)(c2ccccc2)c2ccc(Cl)cc2Cl)nc2ccccc21 (stereo not drawn) [Example 6, Phenyl-(2,4-dichlorophenyl)-[1-methylbenzimidazolyl-(2)]-carbinol] | > 4000 mg/kg | -20% | -19% | -29% | -12% | -46% | -25% | -35% | 
OC(c1ccccc1)(c1ncc[nH]1)c1ncc[nH]1 [Example 7, Bis-[imidazolyl-(2)]-phenyl-carbinol] | > 4000 mg/kg |  |  |  | -7% | -18% |  | -18% | solubility (in words) [5]: not soluble or poorly soluble only in the usual solvents
CC(C)n1ccnc1C(C)(O)c1ccc(Cl)cc1 (stereo not drawn) [Example 8, Methyl-(p-chlorophenyl)-[1-isopropylimidazolyl-(2)]-carbinol] | > 4000 mg/kg |  |  |  | -14% | -39% |  | -21% | 
Cn1c(C(O)c2nccn2Cc2ccccc2)nc2ccccc21 (stereo not drawn) [Example 9, [1-Benzylimidazolyl-(2)]-[1-methylbenzimidazolyl-(2)]-carbinol] | > 4000 mg/kg |  |  |  | -21% | -40% | -11% | -24% | 
CC(O)(c1ccc(OC(F)(F)C(F)Cl)cc1)c1nccn1Cc1ccccc1 (stereo not drawn) [Example 10, 1-[p-(1,1,2-trifluoro-2-chloro-ethoxy)-phenyl]-1-[1-benzylimidazolyl-(2)]-ethanol] | > 4000 mg/kg |  |  |  | -36% | -56% | -21% | -26% | 
COc1ccc(C(O)c2nccn2-c2ccccc2)cc1OC (stereo not drawn) [Example 11, (3,4-Dimethoxy-phenyl)-[1-phenylimidazolyl-(2)]-carbinol] | > 4000 mg/kg |  |  |  | -24% | -32% | -3% | -21% | 
